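Method: 48-hour compound exposure of cells in 96-well plates, five concentrations, linear interpolation of endpoints. GI50 is the concentration that inhibits growth by half.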 Calls of active or inactive are those of the source. Rule as the data show it: active = GI50 up to about 1.1 µM and inactive = higher.
Key:
Experiment in all cases: inhibition of tumour cell growth, NCI panel, 48 h
HCC 2998 = tested on: HCC 2998
NCI/ADR-RES = tested on: NCI/ADR-RES
SNB-75 = tested on: SNB-75
RXF 393 = tested on: RXF 393
SK-MEL-5 = tested on: SK-MEL-5
UACC-62 = tested on: UACC-62
K562 = tested on: K562
PC-3 = tested on: PC-3
TK-10 = tested on: TK-10
OVCAR-8 = tested on: OVCAR-8
OVCAR-4 = tested on: OVCAR-4
DU-145 = tested on: DU-145
SK-MEL-28 = tested on: SK-MEL-28
SNB-19 = tested on: SNB-19
NCI-H226 = tested on: NCI-H226
HT-29 = tested on: HT-29
SF-268 = tested on: SF-268
SR = tested on: SR

Row | Compound | GI50 (HCC 2998) | GI50 (NCI/ADR-RES) | GI50 (SNB-75) | GI50 (RXF 393) | GI50 (SK-MEL-5) | GI50 (UACC-62) | GI50 (K562) | GI50 (PC-3) | GI50 (TK-10) | GI50 (OVCAR-8) | GI50 (OVCAR-4) | GI50 (DU-145) | GI50 (SK-MEL-28) | GI50 (SNB-19) | GI50 (NCI-H226) | GI50 (HT-29) | GI50 (SF-268) | GI50 (SR)
1 | O=C(NNCC(O)COc1ccccc1)c1ccccc1 (configuration not stated) | > 100 µM (inactive) | > 100 µM (inactive) | > 100 µM (inactive) | > 100 µM (inactive) | 42 µM (inactive) | > 100 µM (inactive) | > 100 µM (inactive) | > 100 µM (inactive) | > 100 µM (inactive) | > 100 µM (inactive) | > 100 µM (inactive) | > 100 µM (inactive) | > 100 µM (inactive) | > 100 µM (inactive) | > 100 µM (inactive) | > 100 µM (inactive) |  | 
2 | CCCCCCCCCC(=O)CC(=O)c1c(O)cc(O)cc1O | 18.8 µM (inactive) | 16.6 µM (inactive) | 22.2 µM (inactive) | 11.7 µM (inactive) | 15.3 µM (inactive) |  | 15.2 µM (inactive) | 17.9 µM (inactive) | 30.4 µM (inactive) | 17.3 µM (inactive) | 16.3 µM (inactive) | 22.4 µM (inactive) | 23.3 µM (inactive) | 22.6 µM (inactive) | 16.2 µM (inactive) | 17.1 µM (inactive) | 18.4 µM (inactive) | 
3 | CC1(O)/C(=N/O)CC2CC1C2(C)C (configuration not stated) | > 100 µM (inactive) |  | > 100 µM (inactive) | > 100 µM (inactive) | > 100 µM (inactive) | > 100 µM (inactive) | > 100 µM (inactive) |  | > 100 µM (inactive) | > 100 µM (inactive) | > 100 µM (inactive) | > 100 µM (inactive) | > 100 µM (inactive) | > 100 µM (inactive) | > 100 µM (inactive) | > 100 µM (inactive) | > 100 µM (inactive) | > 10 µM (inactive)
4 | CCCNc1ncnc2c1ncn2C | 78.7 µM (inactive) | 68.4 µM (inactive) | 38.5 µM (inactive) | > 100 µM (inactive) | > 100 µM (inactive) | 45.1 µM (inactive) | 53.1 µM (inactive) | > 100 µM (inactive) | > 100 µM (inactive) | 48.5 µM (inactive) | > 100 µM (inactive) | 85.3 µM (inactive) | > 100 µM (inactive) | > 100 µM (inactive) | > 100 µM (inactive) |  |  | 
5 | Cc1cc(N(CCC#N)CCC#N)ccc1C(/N=N/c1ccc([N+](=O)[O-])cc1)=N\NC(=O)c1cc(Cl)ccc1C(=O)c1ccccc1 | 13 µM (inactive) | 12.2 µM (inactive) | 24.6 µM (inactive) | 13 µM (inactive) | 12 µM (inactive) | 11.1 µM (inactive) | 9.84 µM (inactive) | 6.5 µM (inactive) | 16.9 µM (inactive) | 6.21 µM (inactive) | 9.2 µM (inactive) | 10.9 µM (inactive) | 20.2 µM (inactive) | 46.7 µM (inactive) | 10 µM (inactive) | 10.4 µM (inactive) | 6.07 µM (inactive) | 
6 | O=S(=O)(c1ccccc1)c1ccc(-c2nc(-c3ccc4c(c3)Sc3ccccc3S4)cs2)cc1 | 35.5 µM (inactive) |  | 10.8 µM (inactive) | 15.8 µM (inactive) |  | 25.6 µM (inactive) | 69 µM (inactive) | > 100 µM (inactive) | 22.1 µM (inactive) | 71.9 µM (inactive) | > 100 µM (inactive) | > 100 µM (inactive) |  | 11.7 µM (inactive) | 67 µM (inactive) | > 100 µM (inactive) | 26.7 µM (inactive) | 32.9 µM (inactive)
7 | COc1ccc(/C=c2\s/c(=C3/SC(=S)N(c4ccccc4)C3=O)n(-c3ccccc3)c2=O)cc1 | > 100 µM (inactive) | > 100 µM (inactive) | 4.61 µM (inactive) |  | > 100 µM (inactive) | 61 µM (inactive) | > 100 µM (inactive) | > 100 µM (inactive) | 21.5 µM (inactive) | > 100 µM (inactive) | > 100 µM (inactive) | > 100 µM (inactive) | > 100 µM (inactive) | 35.4 µM (inactive) |  | > 100 µM (inactive) | 0.895 µM (active) | 15.3 µM (inactive)
8 | COc1ccc(C2c3cc4c(cc3C(O)C3CCC(=O)N23)OCO4)cc1 (configuration not stated) | > 100 µM (inactive) | > 100 µM (inactive) | 82.2 µM (inactive) |  | > 100 µM (inactive) | > 100 µM (inactive) | > 100 µM (inactive) | > 100 µM (inactive) | > 100 µM (inactive) | > 100 µM (inactive) | > 100 µM (inactive) | > 100 µM (inactive) | > 100 µM (inactive) | > 100 µM (inactive) | > 100 µM (inactive) | > 100 µM (inactive) | > 100 µM (inactive) | > 100 µM (inactive)
9 | Nc1ncnc2c1ncn2C1CCC(CP(=O)(O)O)C1 (configuration not stated) | > 100 µM (inactive) | > 100 µM (inactive) |  | > 100 µM (inactive) | > 100 µM (inactive) | > 100 µM (inactive) |  | > 100 µM (inactive) | > 100 µM (inactive) | > 100 µM (inactive) | > 100 µM (inactive) | > 100 µM (inactive) | > 100 µM (inactive) | > 100 µM (inactive) | > 100 µM (inactive) | > 100 µM (inactive) | > 100 µM (inactive) | 
10 | CC(=O)Nc1ccc(OC/C(N)=N/NC(=O)c2ccncc2)cc1 | > 100 µM (inactive) | > 100 µM (inactive) | 29.1 µM (inactive) | > 100 µM (inactive) |  | > 100 µM (inactive) | > 100 µM (inactive) | > 100 µM (inactive) | > 100 µM (inactive) | > 100 µM (inactive) | > 100 µM (inactive) | > 100 µM (inactive) | > 100 µM (inactive) | > 100 µM (inactive) |  | > 100 µM (inactive) | > 100 µM (inactive) | 
11 | N=C(/C=C/c1ccc(-c2cn3cc(/C=C/C(=N)N4CCOCC4)ccc3n2)cc1)N1CCOCC1 | > 100 µM (inactive) | > 100 µM (inactive) | > 100 µM (inactive) | > 100 µM (inactive) | > 100 µM (inactive) | > 100 µM (inactive) | > 100 µM (inactive) | > 100 µM (inactive) | > 100 µM (inactive) | > 100 µM (inactive) | > 100 µM (inactive) | > 100 µM (inactive) | > 100 µM (inactive) | > 100 µM (inactive) | > 100 µM (inactive) |  | > 100 µM (inactive) | 
12 | CN(C)c1ccc(C=C2N=C(c3ccccc3)N(c3cc(C(=O)c4ccccc4)ccc3N3C(=O)/C(=C/c4ccc(N(C)C)cc4)N=C3c3ccccc3)C2=O)cc1 | 3.76 µM (inactive) | 4.06 µM (inactive) | 4.78 µM (inactive) |  | 3.42 µM (inactive) | 4.24 µM (inactive) | 3.95 µM (inactive) | 3.51 µM (inactive) | 23.8 µM (inactive) | 11.5 µM (inactive) | 7.21 µM (inactive) | 5.74 µM (inactive) | > 100 µM (inactive) | 7.94 µM (inactive) |  | 4.28 µM (inactive) | 14.4 µM (inactive) | 3.3 µM (inactive)
13 | Cc1ccc(CS(=O)(=O)C/N=C2\Sc3ccccc3N\C2=C/C(=O)c2ccc(Cl)cc2)cc1 | > 10 µM (inactive) | > 10 µM (inactive) | 3.86 µM (inactive) |  | > 10 µM (inactive) | > 10 µM (inactive) | > 10 µM (inactive) | > 10 µM (inactive) | > 10 µM (inactive) | > 10 µM (inactive) | 5.47 µM (inactive) | > 10 µM (inactive) | > 10 µM (inactive) | > 10 µM (inactive) |  | > 10 µM (inactive) | 7.1 µM (inactive) | > 10 µM (inactive)
14 | COc1cc(N(CCC#N)CCC#N)ccc1C(/N=N/c1cccc([N+](=O)[O-])c1)=N\NC(=O)c1ccc(C)cc1 | 26 µM (inactive) | 67.5 µM (inactive) |  | > 100 µM (inactive) | 59 µM (inactive) | > 100 µM (inactive) | 73.5 µM (inactive) | > 100 µM (inactive) | 31.7 µM (inactive) | 89.5 µM (inactive) | 53.7 µM (inactive) | > 100 µM (inactive) | > 100 µM (inactive) | > 100 µM (inactive) | > 100 µM (inactive) | 92 µM (inactive) | > 100 µM (inactive) | 
15 | O=C(Cn1c2ccc(Br)cc2c2nc3ccccc3nc21)N1CCOCC1 | > 100 µM (inactive) | 47.9 µM (inactive) | 22.1 µM (inactive) | 21.3 µM (inactive) | > 100 µM (inactive) | > 100 µM (inactive) | > 100 µM (inactive) | 95.7 µM (inactive) | > 100 µM (inactive) | 44.3 µM (inactive) | > 100 µM (inactive) | > 100 µM (inactive) | > 100 µM (inactive) | > 100 µM (inactive) | > 100 µM (inactive) | > 100 µM (inactive) | > 100 µM (inactive) | 
16 | Cc1ccc2c(=O)c3cccc(CC(=O)O)c3[nH]c2c1C | > 10 µM (inactive) | > 100 µM (inactive) |  |  | 33.3 µM (inactive) | > 100 µM (inactive) | > 100 µM (inactive) | > 100 µM (inactive) | > 100 µM (inactive) | > 100 µM (inactive) | > 100 µM (inactive) | > 100 µM (inactive) | > 100 µM (inactive) | > 100 µM (inactive) | > 100 µM (inactive) | > 100 µM (inactive) | 17.5 µM (inactive) | > 100 µM (inactive)
17 | CC1=NN(c2nc(N)nc(CSc3cc(Cl)c(C)cc3S(N)(=O)=O)n2)C(C)(C)C1 | > 10 µM (inactive) | > 10 µM (inactive) | > 10 µM (inactive) | > 10 µM (inactive) | > 10 µM (inactive) | > 10 µM (inactive) | > 10 µM (inactive) | > 10 µM (inactive) | > 10 µM (inactive) | > 10 µM (inactive) | > 10 µM (inactive) | > 10 µM (inactive) | > 10 µM (inactive) | > 10 µM (inactive) | > 10 µM (inactive) | > 10 µM (inactive) | > 10 µM (inactive) | 
